Experimental findings from patent publication US20170122958A1, “Enzymes Functional Probes” (University of Dundee, priority 2013, published 2017) are described below.

The target in one assay is Brd2(1) Leu110-Ile (Homo sapiens, UniProt P25440, L110I). The assay is described as follows: ITC reverse titration of protein into compound. The class given is binding. On the set-up: Plasmids of the eight single BET bromodomain constructs Brd2(1), Brd2(2), Brd3(1), Brd3(2), Brd4(1), Brd4(2), Brdt(1) and Brdt(2); His6 (N); made in house; host or cells: E. coli BL21(DE3). The protocol:
(§1) ITC experiments were carried out on a ITC200 instrument from MicroCal™ Experiments were conducted at 3 different temperatures 15° C., 25° C. and 30° C., while stirring at 1000 rpm. Buffers of proteins, peptide and compounds were matched to 20 mM HEPES pH 7.5 at 25° C. and 100 mM NaCl. Frozen protein was buffer exchanged as described for the DSF experiments. Each titration comprised 1 initial injection of 0.4 μl lasting 0.8 s, followed by 19 injections of 2 μl lasting 4 s each at 2 min intervals. The initial injection was discarded during data analysis. Standard and reverse titrations were conducted depending on the binding partners.
(§2) Reverse titrations were conducted to test the binding of the known ligands and the novel chemical probes to the wild types and the mutants. Experiments were carried out either at 25° C. or 30° C. For strong binders, a concentration of 150-200 μM of the protein was injected into a solution of 15-20 μM compound. […] In cases where the compound was solubilized in dimethyl sulfoxide, DMSO concentration was adjusted to 1% both in the syringe and in the cell.
(§3) All the data was fitted to a single binding site model using the Microcal LLC ITC200 Origin software provided by the manufacturer to yield enthalpies of binding (ΔH) and binding constants (Kas). Further thermodynamic parameters were calculated from these values (changes in entropy ΔS, changes in free energy AG and dissociation constants (Kds)).

A further assay addresses Brd2(2) Leu383-Ile (Homo sapiens, UniProt P25440, L383I). The assay is described as follows: ITC reverse titration of protein into compound. The class given is binding. Also noted: Plasmids of the eight single BET bromodomain constructs Brd2(1), Brd2(2), Brd3(1), Brd3(2), Brd4(1), Brd4(2), Brdt(1) and Brdt(2); His6 (N); made in house; host or cells: E. coli BL21(DE3). The protocol:
as §1, §2, §3

The target in another assay is T1, WT GFP-Brd4 (Homo sapiens, UniProt O60885).
T1 construct: full length human GFP-BRD4 transfected into human osteosarcoma cells (U2OS); expressed in transfected cells; host or cells: U2OS human osteosarcoma cells
The assay is described as follows: FRAP in transfected U2OS cells. The class given is cell-based. The note with it: WT GFP-Brd4, 1 μM compound.

In assay [1] the target is T2, Brd2 tandem with no mutation (WT-WT) (Homo sapiens, UniProt P25440).
T2 construct: containing the first and the second bromodomain, as well as the natural linker between them; His6; SUMO (cleaved yes); made in house; host or cells: E. coli BL21(DE3)
T2 sequence (P25440 71-455 limits assumed, change not shown): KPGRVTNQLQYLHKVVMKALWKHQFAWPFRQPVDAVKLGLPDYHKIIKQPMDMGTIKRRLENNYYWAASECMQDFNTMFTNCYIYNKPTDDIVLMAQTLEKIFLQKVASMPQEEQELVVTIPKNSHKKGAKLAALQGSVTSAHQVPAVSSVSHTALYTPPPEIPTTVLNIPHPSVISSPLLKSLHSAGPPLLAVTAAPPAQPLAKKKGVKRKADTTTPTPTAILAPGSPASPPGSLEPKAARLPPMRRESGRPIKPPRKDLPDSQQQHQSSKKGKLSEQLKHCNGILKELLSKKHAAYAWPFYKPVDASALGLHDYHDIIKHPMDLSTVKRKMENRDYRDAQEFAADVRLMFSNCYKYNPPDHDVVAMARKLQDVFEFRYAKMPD
The experiment in a line: ITC of compound into Brd2 tandem construct. The format is binding. The method, then: (§4) Tandem constructs of Brd2 with and without leucine to alanine mutations were expressed and purified for this last part of the project. […] Nevertheless, ITC experiments were performed with four of these constructs, a tandem with no mutation (WT-WT), a tandem with the mutation in the first bromodomain (LA-WT), a tandem with the mutation on the second bromodomain (WT-LA) and a tandem with mutations on both bromodomains (LA-LA). Normal titrations (compound into syringe, protein into sample cell) with compound 11 were performed for this assay. For the WT-WT construct, 300 μM of the compound was injected into a solution of the tandem at 10 μM. For the LA-WT and WT-LA constructs, the compound was injected at 150 μM into 15 μM of the protein and for the LA-LA construct, 150 μM compound was injected into a solution of 10 μM of this tandem construct. The ITC assays were run at 30° C. at 1% DMSO.
as §1, §3

Assay [2] deals with T3, Brd2 tandem with the mutation in the first bromodomain (LA-WT) (Homo sapiens, UniProt P25440, L110A).
T3 construct: containing the first and the second bromodomain, as well as the natural linker between them; His6; SUMO (cleaved yes); made in house; host or cells: E. coli BL21(DE3)
T3 sequence (P25440 71-455 L110A limits assumed): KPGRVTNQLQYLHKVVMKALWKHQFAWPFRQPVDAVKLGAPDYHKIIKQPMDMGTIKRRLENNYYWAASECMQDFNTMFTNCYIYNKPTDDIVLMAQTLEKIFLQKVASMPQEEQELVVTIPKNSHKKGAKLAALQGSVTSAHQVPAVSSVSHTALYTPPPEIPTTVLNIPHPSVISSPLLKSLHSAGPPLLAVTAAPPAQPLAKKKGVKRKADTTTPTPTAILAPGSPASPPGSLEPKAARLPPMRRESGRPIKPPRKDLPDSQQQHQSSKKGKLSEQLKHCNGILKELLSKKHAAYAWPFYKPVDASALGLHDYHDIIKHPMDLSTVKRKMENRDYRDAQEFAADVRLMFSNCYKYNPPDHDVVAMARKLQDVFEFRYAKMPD
The experiment in a line: ITC of compound into Brd2 tandem construct. The class given is binding. The method, then: as §4, §1, §3

Assay [3] addresses T4, Brd2 tandem with mutations on both bromodomains (LA-LA) (Homo sapiens, UniProt P25440, L110A/L383A).
T4 construct: containing the first and the second bromodomain, as well as the natural linker between them; His6; SUMO (cleaved yes); made in house; host or cells: E. coli BL21(DE3)
The assay is described as follows: ITC of compound into Brd2 tandem construct. The class given is binding. The protocol:
as §4, §1, §3

Chain of Brd2(1) Leu110-Ile (P25440 74-180 L110I limits assumed): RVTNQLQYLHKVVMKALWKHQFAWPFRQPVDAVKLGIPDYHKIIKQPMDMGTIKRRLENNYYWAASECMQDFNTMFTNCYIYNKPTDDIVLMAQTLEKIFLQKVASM
T4 sequence (P25440 71-455 L110A/L383A limits assumed): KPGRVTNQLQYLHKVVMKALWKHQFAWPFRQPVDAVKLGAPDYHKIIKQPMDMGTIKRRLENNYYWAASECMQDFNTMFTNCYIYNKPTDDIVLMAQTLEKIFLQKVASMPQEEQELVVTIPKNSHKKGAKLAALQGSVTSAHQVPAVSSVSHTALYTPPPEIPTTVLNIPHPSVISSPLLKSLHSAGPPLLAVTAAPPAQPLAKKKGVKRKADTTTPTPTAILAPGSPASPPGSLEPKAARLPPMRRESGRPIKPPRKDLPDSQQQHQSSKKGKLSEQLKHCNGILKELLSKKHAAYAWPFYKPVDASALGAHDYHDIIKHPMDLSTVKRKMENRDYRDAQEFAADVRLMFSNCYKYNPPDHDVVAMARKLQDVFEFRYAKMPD
Chain of Brd2(2) Leu383-Ile (P25440 344-453 L383I limits assumed): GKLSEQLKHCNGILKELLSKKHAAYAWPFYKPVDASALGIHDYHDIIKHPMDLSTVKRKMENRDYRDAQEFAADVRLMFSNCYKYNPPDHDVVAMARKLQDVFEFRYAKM
Protocol for WT GFP-Brd4: The data shown represent the mean±SEM (n=35-50). Statistical significance was determined by one-tailed t tests: *<0.05; **P<0.01; ***P<0.001; n.s. not significant.
Fluorescence recovery after photobleaching (FRAP) experiments were performed in human osteosarcoma U2OS cells transfected with mammalian expression constructs encoding wild type and mutant GFP chimeras of Brd4. Cells were cultured in DMEM (Gibco) supplemented with fetal bovine serum, Penicillin/Streptamycin and L-Glutamine. Cells were seeded into glass bottom dishes (Willco) to about 40% confluency and transfected with the constructs using Effectene (QIAGEN) at least 18 h before the experiment. Treatment of cells with 1 μM compounds (in DMSO) was performed 12-15 h before the experiment. Cells without compound treatment were treated with DMSO as a vehicle control at least 15 h before the experiment. DMEM was exchanged for CO2-independent phenol red-free media (Gibco) for the experiment. […] A spot was bleached with a single pulse at 100% laser power for 0.2 s and recovery images were acquired using a coolsnap HQ camera with a 2×2 bin at 0.05 s exposure. […] FRAP data was analysed using the SoftWorX software. It was fitted to a 2-dimensional recovery curve using the method of Axelrod as implemented within the software and half-times of recovery were calculated.

Usually Kd stands for the concentration at which binding is half-saturated. A higher Kd goes with weaker binding. Turning to `COC(=O)[C@H](C)[C@@H]1N=C(c2ccc(Cl)cc2)c2cc(OC)ccc2-n2c(C)nnc21` (racemic) [Compound 7, (+−)-methyl (R)-2-((S)-6-(4-chlorophenyl)-8-methoxy-1-methyl-4H-benzo[f][1,2,4]triazolo[4,3-a][1,4]diazepin-4-yl)propanoate], the dissociation constant Kd was 260 nM on Brd2(1) Leu110-Ile and 27 nM at Brd2(2) Leu383-Ile.

On to `CC[C@@H](C(=O)OC)[C@@H]1N=C(c2ccc(Cl)cc2)c2cc(OC)ccc2-n2c(C)nnc21` (racemic) [Compound 11, (+−)-methyl (R)-2-((S)-6-(4-chlorophenyl)-8-methoxy-1-methyl-4H-benzo[f][1,2,4]triazolo[4,3-a][1,4]diazepin-4-yl)butanoate], for which the “Fluorescence recovery after photobleaching (recovery time)” value at WT GFP-Brd4 was “no reduction of recovery times relative to vehicle-treated cells”. The figures for the Kd in assay [1], in assay [2] and in assay [3] were about 15800 nM, about 160 nM and about 56 nM, respectively.
